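In this assay, cells in 96-well plates receive the compound at five concentrations for 48 hours. Endpoints are linearly interpolated between the surrounding concentrations. The concentration for 50% growth inhibition is given as GI50. TGI is the concentration that stops growth completely.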
What was measured:
Assay in all cases: inhibition of tumour cell growth, NCI panel, 48 h
CAKI-1 renal = system: CAKI-1 renal
COLO 205 colon = system: COLO 205 colon
EKVX NSCLC = system: EKVX NSCLC
HCC-2998 colon = system: HCC-2998 colon
HOP-62 NSCLC = system: HOP-62 NSCLC
LOX IMVI melanoma = system: LOX IMVI melanoma
MDA-N = system: MDA-N
NCI-H522 lung = system: NCI-H522 lung
OVCAR-5 ovarian = system: OVCAR-5 ovarian
SK-MEL-28 melanoma = system: SK-MEL-28 melanoma

| SMILES | TGI (CAKI-1 renal) [µM] | TGI (COLO 205 colon) [µM] | TGI (EKVX NSCLC) [µM] | TGI (HCC-2998 colon) [µM] | TGI (HOP-62 NSCLC) [µM] | TGI (LOX IMVI melanoma) [µM] | TGI (MDA-N) [µM] | TGI (NCI-H522 lung) [µM] | TGI (OVCAR-5 ovarian) [µM] | TGI (SK-MEL-28 melanoma) [µM] | GI50 (HOP-62 NSCLC) [µM] |
| --- | --- | --- | --- | --- | --- | --- | --- | --- | --- | --- | --- |
| Cn1c2ccccc2c(=O)c2c(O)cc3c(c21)C=CC1(CCCCC1)O3 | > 10 | > 10 | > 10 | > 10 | > 10 | > 10 | > 10 | > 10 | > 10 | > 10 | – |
| C[C@]12CC[C@@H]3c4cc(I)c(O)cc4CC[C@H]3[C@@H]1CC[C@@H]2O | 27 | 36.2 | 15.6 | 21 | 17.3 | 25.8 | 5.77 | 17.8 | 25.7 | 26.7 | 4.22 |
| O=C1NCN(c2ccccc2)C12CCN(CCCN1CCN(CCOC(c3ccc(F)cc3)c3ccc(F)cc3)CC1)CC2 | 5.07 | 3.18 | 9.81 | 2.93 | 3.81 | 3.39 | 3.65 | 3.69 | 11.4 | 6.3 | – |
| CCCCn1c(-c2ccc([N+](=O)[O-])cc2)cs/c1=N/N=C1\C(=O)Nc2ccc(Br)cc21 | 63.2 | 28.7 | 79.3 | 34.7 | 37.9 | 39 | 45.2 | 36.7 | > 100 | > 100 | – |
| O=c1[nH]c(Nc2cccc(CO)c2)nc2nc[nH]c12 | > 100 | > 100 | > 100 | > 100 | > 100 | > 100 | > 100 | > 100 | > 100 | > 100 | – |
| O=C1c2ccccc2NC(=S)[C@@H]2CCCN12 | > 100 | > 100 | > 100 | > 100 | > 100 | > 100 | > 100 | > 100 | > 100 | > 100 | – |
| CC(=O)OC1CCC2C3CCc4c(C)ccc(OS(=O)(=O)c5ccccc5)c4C3CCC12C (stereo unspecified) | > 100 | > 100 | > 100 | > 100 | > 100 | > 100 | > 100 | > 100 | > 100 | > 100 | – |
| O=C(c1ccncc1)C1C(=O)c2ccccc2C1C1(O)c2ccccc2CC1C(O)c1ccncc1 (stereo unspecified) | > 100 | > 100 | > 100 | > 100 | > 100 | > 100 | 38.9 | > 100 | > 100 | > 100 | – |

Reference: PubChem BioAssay (NCI)
